Measured values taken from patent EP4603105A1, “PHARMACEUTICAL COMPOSITION CONTAINING CYCLIC COMPOUND HAVING SELECTIVE KRAS INHIBITORY EFFECT AGAINST HRAS AND NRAS” (CHUGAI SEIYAKU KABUSHIKI KAISHA, priority 2022, dated 2024).
Where a SMILES comes first, the peptide text is derived from it. Bridges are numbered along the chain shown (N, C = ends). [ ]: non-standard residue; d: D form. The star is where a group is joined. hPhe(3-Cl-4-CF3) = N[C@@H](CCc1ccc(C(F)(F)F)c(Cl)c1)C(=O)O; NPrPhe(4-CF3) = CCCN[C@@H](Cc1ccc(C(F)(F)F)cc1)C(=O)O; NEtPhe(4-Me) = CCN[C@@H](Cc1ccc(C)cc1)C(=O)O; NMeGly(cPent) = CN[C@H](C(=O)O)C1CCCC1; Hyp = O=C(O)[C@@H]1C[C@@H](O)CN1; NMeD = CN[C@@H](CC(=O)O)C(=O)O; NMeL = CN[C@@H](CC(C)C)C(=O)O; NMeNva = CCC[C@H](NC)C(=O)O; Morpholide = C1CN(*)CCO1; NMeA = CN[C@@H](C)C(=O)O; Ac5c = NC1(C(=O)O)CCCC1; Aze = O=C(O)[C@@H]1CCN1; Ac4c = NC1(C(=O)O)CCC1; Sar = CNCC(=O)O

Columns and labels:
[1] = target: GDP-bound NRAS wild-type protein (Homo sapiens, UniProt P01111); test: Binding to NRAS by surface plasmon resonance (SPR), KD and KD ratio to KRAS
Chain of GDP-bound NRAS wild-type protein (P01111 whole entry): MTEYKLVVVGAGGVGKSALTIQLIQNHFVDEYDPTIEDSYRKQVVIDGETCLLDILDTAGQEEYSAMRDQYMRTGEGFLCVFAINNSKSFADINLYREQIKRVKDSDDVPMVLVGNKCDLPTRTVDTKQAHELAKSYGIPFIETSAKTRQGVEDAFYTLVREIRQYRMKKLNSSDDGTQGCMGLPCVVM
Summary of the method: (§1)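 Affinity is measured by surface plasmon resonance at 30°C against captured, GDP-loaded RAS carrying a biotinylated Avi tag. Compounds are titrated by single-cycle kinetics, and KD comes from a 1:1 fit.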

HRAS wild-type protein = HRAS wild-type protein (Homo sapiens, UniProt P01112); test: Binding to HRAS by surface plasmon resonance (SPR), KD and KD ratio to KRAS
Chain of HRAS wild-type protein (P01112 whole entry): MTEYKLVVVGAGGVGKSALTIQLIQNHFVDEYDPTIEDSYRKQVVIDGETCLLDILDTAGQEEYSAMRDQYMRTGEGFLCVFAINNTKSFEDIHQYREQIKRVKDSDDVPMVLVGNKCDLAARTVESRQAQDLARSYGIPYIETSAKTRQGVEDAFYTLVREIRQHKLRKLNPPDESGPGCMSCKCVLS
Summary of the method: as §1

[2] = tested on: human lung cancer strain NCI-H441; type: cell-based
Summary of the method: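 Readout: […] after the ATP-based reagent. Compound: serial dilutions in dimethyl sulfoxide.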

[3] = ratio of KD value for GDP-bound NRAS wild-type protein to KD value for KRAS (SPR)
[4] = ratio of KD value for HRAS wild-type protein to KD value for KRAS (SPR)
[5] = ratio of KD for GDP-bound NRAS wild-type protein to KD for KRAS
[6] = ratio of KD for HRAS wild-type protein to KD for KRAS

IC50 [2]	SMILES	NRAS /KRAS [1, 5]	HRAS /KRAS (HRAS wild-type protein; [6])	also measured
54.2 nM	CCO[C@@H]1C[C@H]2C(=O)NC3(CC(F)(F)C3)C(=O)N(C)[C@@H](C(CC)CC)C(=O)N3CCC[C@@H]3CC(=O)N(C)[C@@H](CC3CC3)C(=O)N[C@@H]([C@@H](C)CC)C(=O)N(C)CC(=O)N(C)[C@H]3C/C=C\CCN(C3=O)[C@@H](Cc3ccc(C(F)(F)F)cc3)C(=O)N(C)CC(=O)N[C@@H](CCc3cc(F)c(C(F)(F)F)c(F)c3)C(=O)N2C1 [PP1614]	–	–	NRAS /KRAS [1, 3]: A (a compound having 10 or more and less than 20 is denoted as A); HRAS /KRAS (HRAS wild-type protein; [4]): A (a compound having 10 or more and less than 20 is denoted as A)
11.4 nM	CCC[C@H]1C(=O)N[C@@H](C2CCCC2)C(=O)N(C)CC(=O)N(C)[C@H]2C/C=C\CCN(C2=O)[C@@H](Cc2ccc(C)cc2)C(=O)N(C)CC(=O)N[C@@H](CCc2cc(F)c(C(F)(F)F)c(F)c2)C(=O)N2CC3(CC3)C[C@H]2C(=O)NC2(CC(C)(C)C2)C(=O)N(C)[C@@H](CC(C)(C)C)C(=O)N(C)[C@H](C(=O)N(C)C)CC(=O)N1C [PP2999]	AA (a compound having 20 or more is denoted as AA)	A (a compound having 10 or more and less than 20 is denoted as A)	–
23.6 nM	CCO[C@@H]1C[C@H]2C(=O)NC3(CCC3)C(=O)N(C)[C@@H](C3CCCC3)C(=O)N(C)[C@H](C(=O)N(C)C)CC(=O)N(C)[C@@H](CC)C(=O)N[C@@H]([C@@H](C)CC)C(=O)N(C)CC(=O)N(C)[C@H]3C/C=C\CCN(C3=O)[C@@H](Cc3ccc(C(F)(F)F)cc3)C(=O)N(C)CC(=O)N[C@@H](CCc3cc(F)c(C(F)(F)F)c(F)c3)C(=O)N2C1 [PP0824]	A (a compound having 10 or more and less than 20 is denoted as A)	A (a compound having 10 or more and less than 20 is denoted as A)	–
85.9 nM	C=CC[C@H]1C(=O)N[C@@H]([C@@H](C)CC)C(=O)N(C)CC(=O)N(C)[C@H]2CCCCCN(C2=O)[C@@H](Cc2ccc(C(F)(F)F)cc2)C(=O)N(C)CC(=O)N[C@@H](CCc2cc(F)c(C(F)(F)F)c(F)c2)C(=O)N2C[C@H](OCC)C[C@H]2C(=O)N[C@](C)(CC=C)C(=O)N(C)[C@@H](C2CCCC2)C(=O)N(C)[C@H](C(=O)N2CCOCC2)CC(=O)N1C [PP0878]	B (a compound having 3 or more and less than 10 is denoted as B)	B (a compound having 3 or more and less than 10 is denoted as B)	–
1.4 nM	CCC[C@H]1C(=O)N[C@@H]([C@@H](C)CC)C(=O)N(C)[C@@H](C)C(=O)N2CC[C@H]2C(=O)N(CCC)[C@@H](Cc2ccc(C(F)(F)F)cc2)C(=O)N(C)CC(=O)N[C@@H](CCc2ccc(C(F)(F)F)c(Cl)c2)C(=O)N2CCC[C@H]2C(=O)NC2(CCCC2)C(=O)N(C)[C@@H](C2CCCC2)C(=O)N(C)[C@H](C(=O)N2CCOCC2)CC(=O)N1C [PP0193] ([NMeNva]I[NMeA][Aze][NPrPhe(4-CF3)][Sar][hPhe(3-Cl-4-CF3)]P[Ac5c][NMeGly(cPent)][NMeD]-Morpholide; lactam N-11)	C (A compound having a KD ratio of 0.1 or more and less than 3 is denoted as C)	C (A compound having a KD ratio of 0.1 or more and less than 3 is denoted as C)	–
24.6 nM	CC[C@H](C)[C@@H]1NC(=O)[C@H](CC(C)C)N(C)C(=O)C[C@@H](C(=O)N2CCOCC2)N(C)C(=O)[C@H](CC(C)C)N(C)C(=O)C2(CCCC2)NC(=O)[C@@H]2CCCN2C(=O)[C@H](CCc2ccc(C(F)(F)F)c(Cl)c2)NC(=O)CN(C)C(=O)[C@H](Cc2ccc(C)cc2)N(CC)C(=O)[C@@H]2CCN2C(=O)[C@H](C)N(C)C1=O [PP0016] ([NMeL]I[NMeA][Aze][NEtPhe(4-Me)][Sar][hPhe(3-Cl-4-CF3)]P[Ac5c][NMeL][NMeD]-Morpholide; lactam N-11)	C (A compound having a KD ratio of 0.1 or more and less than 3 is denoted as C)	C (A compound having a KD ratio of 0.1 or more and less than 3 is denoted as C)	–
736 nM	CCO[C@@H]1C[C@H]2C(=O)NC3(CCC3)C(=O)N(C)[C@@H](C3CCCC3)C(=O)N(C)[C@H](C(=O)N3CCOCC3)CC(=O)N(C)[C@@H](CC)C(=O)N[C@@H]([C@@H](C)CC)C(=O)N(C)CC(=O)N(C)[C@H]3CC/C=C(/C)CN(C3=O)[C@@H](Cc3ccc(C(F)(F)F)cc3)C(=O)N(C)CC(=O)N[C@@H](CCc3cc(F)c(C(F)(F)F)c(F)c3)C(=O)N2C1 [PP1335]	–	–	NRAS /KRAS ([1]; ratio of KD with respect to GDP-bound NRAS wild-type protein to KD with respect to KRAS): B (a compound having 3 or more and less than 10 is denoted as B); HRAS /KRAS (HRAS wild-type protein; ratio of KD with respect to HRAS wild-type protein to KD with respect to KRAS): B (a compound having 3 or more and less than 10 is denoted as B)
37.5 nM	CCO[C@@H]1C[C@H]2C(=O)NC3(CCC3)C(=O)N(C)[C@@H](C3CCCC3)C(=O)N(C)[C@H](C(=O)N3CCOCC3)CC(=O)N(C)[C@@H](COC)C(=O)N[C@@H]([C@@H](C)CC)C(=O)N(C)CC(=O)N(C)[C@H]3CCCCCN(C3=O)[C@@H](Cc3ccc(C(F)(F)F)cc3)C(=O)N(C)CC(=O)N[C@@H](CCc3ccc(C(F)(F)F)c(F)c3)C(=O)N2C1 [PP0848]	B (a compound having 3 or more and less than 10 is denoted as B)	B (a compound having 3 or more and less than 10 is denoted as B)	–
49.4 nM	CCO[C@@H]1C[C@H]2C(=O)NC3(CCC3)C(=O)N(C)[C@@H](C(CC)CC)C(=O)N(C)[C@H](C(=O)N(C)C)CC(=O)N(C)[C@@H](CC(C)C)C(=O)N[C@@H]([C@@H](C)CC)C(=O)N(C)CC(=O)N(C)[C@H]3C/C=C\CCN(C3=O)[C@@H](Cc3ccc(F)cc3C)C(=O)N(C)CC(=O)N[C@@H](CCc3cc(F)c(C(F)(F)F)c(F)c3)C(=O)N2C1 [PP1518]	–	–	NRAS /KRAS [1, 3]: A (a compound having 10 or more and less than 20 is denoted as A); HRAS /KRAS (HRAS wild-type protein; [4]): B (a compound having 3 or more and less than 10 is denoted as B)
7.1 nM	CCCN(C)C(=O)[C@@H]1CC(=O)N(C)[C@@H](CC(F)F)C(=O)N[C@@H]([C@@H](C)CC)C(=O)N(C)CC(=O)N(C)[C@H]2C/C=C\CCN(C2=O)[C@@H](Cc2ccc(C(F)(F)F)cc2)C(=O)N(C)CC(=O)N[C@@H](CCc2cc(F)c(Cl)c(F)c2)C(=O)N2C[C@H](OCC)C[C@H]2C(=O)NC2(CC(C)(C)C2)C(=O)N(C)[C@@H](C2CCCC2)C(=O)N1C [PP1757]	–	–	NRAS /KRAS [1, 3]: AA (a compound having 20 or more is denoted as AA); HRAS /KRAS (HRAS wild-type protein; [4]): A (a compound having 10 or more and less than 20 is denoted as A)
1.1 nM	CCCN1C(=O)CN(C)C(=O)CN(C)C(=O)[C@H]([C@@H](C)CC)NC(=O)[C@H](CC(C)C)N(C)C(=O)C[C@@H](C(=O)N(C)C)N(C)C(=O)[C@H](C2CCCC2)N(C)C(=O)C2(CCC2)NC(=O)[C@@H]2C[C@@H](OCC)CN2C(=O)[C@H](CCc2ccc(C(F)(F)F)c(Cl)c2)NC(=O)CN(C)C(=O)[C@@H]1Cc1ccc(C(F)(F)F)cc1 [PP0416] ([NMeL]I[Sar][Sar][NPrPhe(4-CF3)][Sar][hPhe(3-Cl-4-CF3)][Hyp](Et)[Ac4c][NMeGly(cPent)][NMeD]-NMe2; lactam N-11)	–	–	NRAS /KRAS ([1]; ratio of the KD value with respect to GDP-bound NRAS wild-type protein to the KD value with respect to KRAS): B (a compound having 3 or more and less than 10 is denoted as B); HRAS /KRAS (HRAS wild-type protein; ratio of the KD value with respect to HRAS wild-type protein to the KD value with respect to KRAS): C (A compound having a KD ratio of 0.1 or more and less than 3 is denoted as C)

SMILES	IC50 [2]	NRAS /KRAS [1, 5]	HRAS /KRAS (HRAS wild-type protein; [6])	also measured
CCO[C@@H]1C[C@H]2C(=O)NC3(CC(C)(C)C3)C(=O)N(C)[C@@H](C3CCCC3)C(=O)N(C)[C@H](C(=O)N3CCCCC3)CC(=O)N(C)[C@H]3CC/C=C/c4ccc(cc4)C[C@@H](C(=O)N(C)CC(=O)N[C@@H](CCc4ccc(Cl)c(Cl)c4)C(=O)N2C1)N1CC/C=C\C[C@@H](C1=O)N(C)C(=O)CN(C)C(=O)[C@H]([C@@H](C)CC)NC3=O [PP2597]	20.1 nM	A (a compound having 10 or more and less than 20 is denoted as A)	A (a compound having 10 or more and less than 20 is denoted as A)	–
